Source: patent US20140255321A1, “Active Sunscreen Composition” (Rhode Island Hospital, priority 2008, published 2014)

System: Normal Human Dermal Fibroblast cells
Assay: CometAssay of DNA damage in dermal fibroblasts exposed to a solar simulator under a protective layer
Assay type: cell-based
Conditions: for Comet tail appearance / extent of DNA damage (in words): SYBR I Green visualisation after electrophoresis 25 minutes at 20 volts, FIGS. 2 and 3; for Comet tail appearance / extent of DNA damage (in words) / Integral of Student's Probability Density for Tail Length/Total Length: disodium salt
Description: Using a model for human skin (confluent human dermal fibroblasts, Lonza CC-2511), a fluorescent dye was used to evaluate induction of […]. Stilbene-420 was selected for having a broad range of absorption in the UVB and UVA ranges while retaining a relatively narrow emission spectrum centered around 420 nm. A 2% solution of stilbene in water was used for this study.
Stilbene-420 was compared to both unshielded cells and commercial SPF 45 sunblock in their ability to protect Normal Human Dermal Fibroblast cells raised on Lonza FGM-2 media from exposure to the full power of a solar simulator. A CometAssay was used to assess DNA damage to the cells. The resulting data was filtered and analyzed with an Integral of Student's Probability Density.
Using Fibroblast Grown Medium with 10% FBS, normal Human Dermal Fibroblasts (obtained from Lonza Clonetics) were grown to confluence in a 12-well plate. After 6 days, one of the wells was harvested by scraping and stored at 4° C. Using custom aluminum holders, a UV-transparent quartz window was placed above each well, and space between the window and holder sealed with 5% agarose. The windows were then covered with 0.5 mL of 0.5% Stilbene 420 florescent dye in water, commercial SPF 45 sunblock or left alone. Then, the plate was exposed to a Solar Simulator for 22.5 minutes at full intensity. Afterwards, the cells were harvested by scraping and all the cells were suspended in low-melting point for the CometAssay using a kit produced by Trevigen. Though the results of DNA damage are often easy to see, for example, cell death, quantifying the extent to which this damage has occurred can be difficult. The CometAssay is a test measures fairly low levels of DNA Damage. The basic concept of the test is that, given more incipient DNA damage that is dealt, the more fragments of DNA are created and the smaller they become. By embedding the cells in a low melting point agarose gel and lysing them, release of these DNA fragments occurs without inducing further damage. A simple gel electrophoresis process causes the fragments to begin to migrate out of the lysed cells. As smaller fragments move faster, a comet-like tail develops, which can be visualized by using a dye like SYBR1 Green. The relative size, intensity and length of this tail are directly related to the amount of DNA damage a cell has received.
After lysing the cells and running them on an electrophoresis apparatus for 25 minutes at 20 volts, the DNA fragment “tails” were visualized with SYBR I Green dye under a microscope using a 492 nm laser and stored (FIGS. 2a.-c.). Using a MatLAB script, the images were filtered by their intensity to isolate individual cells (FIG. 3). […] This is indicative of damaged DNA which forms a heterogeneous population of DNA strand lengths.
Each cell was measured by the width of the “core,” where the larger, less-damaged pieces of DNA remained, and the length of the “tail” produced from the migration of the smaller fragments. These values were compared in several ratios and a Student t-test was performed (Table 1). From those t-values an Integral of Student's Probability Density was calculated assuming an unequal variance between the different protections. This latter value determines the probability that the data comes from the same population as the control data. For the sunblock-protected cells, there is just an 11% chance when comparing the ratio of tail length to total length of the “comet” to the same ratio for the control. For the unprotected cells, the probability drops to just 4.7%. But, for the dye-protected cells, there was a 96.6% came from the same population, indicating the dye provided the best protection, keeping the cells closest to their original state.

[1] = Student t-test vs unexposed control cells, Solar Simulator 22.5 minutes at full intensity
[2] = probability that data come from the same population as the control, unequal variance assumed

## O=S(=O)([O-])c1ccccc1C=Cc1ccc(-c2ccc(C=Cc3ccccc3S(=O)(=O)[O-])cc2)cc1.[Na+].[Na+] [Stilbene 420, 2,2″-([1,1′-biphenyl]-4.4′-dyldi-2,1-ethenediyl)bis-benzenesulfonic acid disodium salt]
  Comet tail appearance / extent of DNA damage (in words): narrower, shorter tail
Listed as stillbene
  Comet tail appearance / extent of DNA damage (in words): do not form tails
[1]
  Tail Length/Core Width T-Value: 0.2257
  Tail Length/Total Length T-Value: 0.0437
Student t-test vs unexposed control cells, comet tail/core measures, Solar Simulator 22.5 minutes at full intensity
  Difference T-value: 0.1870
[2]
  Integral of Student's Probability Density for Difference: 85.83%
  Integral of Student's Probability Density for Tail Length/Core Width: 82.7%
  Integral of Student's Probability Density for Tail Length/Total Length: 96.63%
Probability that data come from the same population as the control, unequal variance assumed, listed as dye
  Integral of Student's Probability Density for Tail Length/Total Length: 96.6%
Statistical comparison of Stilbene-protected vs sunblock-protected cells
  Greater chance of being from the same population of unexposed cells than the sunblock protected cells: more than a forty percent greater chance
